Experimental data from ChEMBL document CHEMBL3745645, “Synthesis, in vitro antitumor activity, dihydrofolate reductase inhibition, DNA intercalation and structure-activity relationship studies of 1,3,5-triazine analogues” (Bioorg Med Chem Lett, 2016).
Active and inactive are the calls of the source. The calls are words filed in the database; no cut-off is given here.

What was measured:
Format in all cases: functional
[1] = Cytotoxicity against human Caki1 cells at 10 uM after 48 hrs by SRB assay; conditions: CAKI-1, 48 h, read-out: GI
[2] = Cytotoxicity against human RXF393 cells at 10 uM after 48 hrs by SRB assay; conditions: RXF 393, 48 h, read-out: GI
SN12C = assay: Cytotoxicity against human SN12C cells at 10 uM after 48 hrs by SRB assay; conditions: read-out: GI
[3] = Cytotoxicity against human TK10 cells at 10 uM after 48 hrs by SRB assay; conditions: TK-10, 48 h, read-out: GI
[4] = Cytotoxicity against human UO31 cells at 10 uM after 48 hrs by SRB assay; conditions: UO-31, 48 h, read-out: GI
[5] = Cytotoxicity against human PC3 cells at 10 uM after 48 hrs by SRB assay; conditions: PC-3, 48 h, read-out: GI
DU-145 = assay: Cytotoxicity against human DU145 cells at 10 uM after 48 hrs by SRB assay
MCF7 = assay: Cytotoxicity against human MCF7 cells at 10 uM after 48 hrs by SRB assay; conditions: MCF7, 48 h, read-out: GI
MDA-MB-231 = assay: Cytotoxicity against human MDA-MB-231 cells at 10 uM after 48 hrs by SRB assay
[6] = Cytotoxicity against human Hs 578T cells at 10 uM after 48 hrs by SRB assay; conditions: read-out: GI
[7] = Cytotoxicity against human BT549 cells at 10 uM after 48 hrs by SRB assay; conditions: BT-549, 48 h, read-out: GI
T47D = assay: Cytotoxicity against human T47D cells at 10 uM after 48 hrs by SRB assay; conditions: read-out: GI
MDA-MB-468 = assay: Cytotoxicity against human MDA-MB-468 cells at 10 uM after 48 hrs by SRB assay; conditions: MDA-MB-468, 48 h, read-out: GI
CCRF-CEM = assay: Cytotoxicity against human CCRF-CEM cells at 10 uM after 48 hrs by SRB assay; conditions: read-out: GI
K562 = assay: Cytotoxicity against human K562 cells at 10 uM after 48 hrs by SRB assay; conditions: K562, 48 h, read-out: GI
[8] = Cytotoxicity against human MOLT4 cells at 10 uM after 48 hrs by SRB assay; conditions: MOLT-4, 48 h, read-out: GI
[9] = Cytotoxicity against human RPMI8226 cells at 10 uM after 48 hrs by SRB assay; conditions: RPMI-8226, 48 h, read-out: GI
SR = assay: Cytotoxicity against human SR cells at 10 uM after 48 hrs by SRB assay; conditions: read-out: GI
A549 = assay: Cytotoxicity against human A549 cells at 10 uM after 48 hrs by SRB assay; conditions: A549, 48 h, read-out: GI
HOP-62 = assay: Cytotoxicity against human HOP62 cells at 10 uM after 48 hrs by SRB assay
[10] = Cytotoxicity against human HOP92 cells at 10 uM after 48 hrs by SRB assay; conditions: HOP-92, 48 h, read-out: GI
NCI-H226 = assay: Cytotoxicity against human NCI-H226 cells at 10 uM after 48 hrs by SRB assay; conditions: NCI-H226, 48 h, read-out: GI
NCI-H23 = assay: Cytotoxicity against human NCI-H23 cells at 10 uM after 48 hrs by SRB assay; conditions: NCI-H23, 48 h, read-out: GI
NCI-H322M = assay: Cytotoxicity against human NCI-H322M cells at 10 uM after 48 hrs by SRB assay
NCI-H460 = assay: Cytotoxicity against human NCI-H460 cells at 10 uM after 48 hrs by SRB assay; conditions: NCI-H460, 48 h, read-out: GI
NCI-H522 = assay: Cytotoxicity against human NCI-H522 cells at 10 uM after 48 hrs by SRB assay; conditions: NCI-H522, 48 h, read-out: GI
[11] = Cytotoxicity against human COLO205 cells at 10 uM after 48 hrs by SRB assay; conditions: COLO 205, 48 h, read-out: GI
HCC 2998 = assay: Cytotoxicity against human HCC2998 cells at 10 uM after 48 hrs by SRB assay
[12] = Cytotoxicity against human HCT116 cells at 10 uM after 48 hrs by SRB assay; conditions: HCT-116, 48 h, read-out: GI
[13] = Cytotoxicity against human HCT15 cells at 10 uM after 48 hrs by SRB assay; conditions: HCT-15, 48 h, read-out: GI
HT-29 = assay: Cytotoxicity against human HT-29 cells at 10 uM after 48 hrs by SRB assay; conditions: HT-29, 48 h, read-out: GI
KM12 = assay: Cytotoxicity against human KM12 cells at 10 uM after 48 hrs by SRB assay; conditions: KM12, 48 h, read-out: GI
[14] = Cytotoxicity against human SW620 cells at 10 uM after 48 hrs by SRB assay; conditions: SW-620, 48 h, read-out: GI
[15] = Cytotoxicity against human SF268 cells at 10 uM after 48 hrs by SRB assay; conditions: SF-268, 48 h, read-out: GI
[16] = Cytotoxicity against human SF295 cells at 10 uM after 48 hrs by SRB assay; conditions: SF-295, 48 h, read-out: GI
[17] = Cytotoxicity against human SF539 cells at 10 uM after 48 hrs by SRB assay; conditions: SF-539, 48 h, read-out: GI
[18] = Cytotoxicity against human SNB19 cells at 10 uM after 48 hrs by SRB assay; conditions: SNB-19, 48 h, read-out: GI
[19] = Cytotoxicity against human SNB75 cells at 10 uM after 48 hrs by SRB assay; conditions: SNB-75, 48 h, read-out: GI
U-251 = assay: Cytotoxicity against human U251 cells at 10 uM after 48 hrs by SRB assay; conditions: U-251, 48 h, read-out: GI
LOX IMVI = assay: Cytotoxicity against human LOXIMVI cells at 10 uM after 48 hrs by SRB assay
Malme-3M = assay: Cytotoxicity against human MALME-3M cells at 10 uM after 48 hrs by SRB assay
M14 = assay: Cytotoxicity against human M14 cells at 10 uM after 48 hrs by SRB assay; conditions: M14, 48 h, read-out: GI
MDA-MB-435 = assay: Cytotoxicity against human MDA-MB-435 cells at 10 uM after 48 hrs by SRB assay; conditions: MDA-MB-435, 48 h, read-out: GI
SK-MEL-28 = assay: Cytotoxicity against human SK-MEL-28 cells at 10 uM after 48 hrs by SRB assay; conditions: SK-MEL-28, 48 h, read-out: GI
SK-MEL-5 = assay: Cytotoxicity against human SK-MEL-5 cells at 10 uM after 48 hrs by SRB assay; conditions: SK-MEL-5, 48 h, read-out: GI
UACC-257 = assay: Cytotoxicity against human UACC257 cells at 10 uM after 48 hrs by SRB assay
[20] = Cytotoxicity against human UACC62 cells at 10 uM after 48 hrs by SRB assay; conditions: UACC-62, 48 h, read-out: GI
[21] = Cytotoxicity against human OVCAR3 cells at 10 uM after 48 hrs by SRB assay; conditions: OVCAR-3, 48 h, read-out: GI
OVCAR-4 = assay: Cytotoxicity against human OVCAR4 cells at 10 uM after 48 hrs by SRB assay
OVCAR-5 = assay: Cytotoxicity against human OVCAR5 cells at 10 uM after 48 hrs by SRB assay
[22] = Cytotoxicity against human OVCAR8 cells at 10 uM after 48 hrs by SRB assay; conditions: OVCAR-8, 48 h, read-out: GI
[23] = Cytotoxicity against human SKOV3 cells at 10 uM after 48 hrs by SRB assay; conditions: SK-OV-3, 48 h, read-out: GI
786-0 = assay: Cytotoxicity against human 786-0 cells at 10 uM after 48 hrs by SRB assay; conditions: 786-0, 48 h, read-out: GI
A498 = assay: Cytotoxicity against human A498 cells at 10 uM after 48 hrs by SRB assay; conditions: A498, 48 h, read-out: GI
ACHN = assay: Cytotoxicity against human ACHN cells at 10 uM after 48 hrs by SRB assay; conditions: read-out: GI

Cc1nc2ccc(Nc3nc(Nc4ccc(F)cc4)nc(N4CCCCC4)n3)cc2n1Cc1ccccc1 gave an inhibition of growth at 10 µM [1] of 1.51%, an inhibition of growth at 10 µM [2] of 13.8% and an inhibition of growth at 10 µM (SN12C) of 3.75%. The inhibition of growth at 10 µM [3] was 7.88%, the inhibition of growth at 10 µM [4] was 15.7% and the inhibition of growth at 10 µM [5] was 21.3%. For the same molecule, the “growth inhibition (GI)” value (DU-145) was “inactive”, the inhibition of growth at 10 µM (MCF7) was 38.8% and the “growth inhibition (GI)” value (MDA-MB-231) was “inactive”. The inhibition of growth at 10 µM [6] was 0.58%, the inhibition of growth at 10 µM [7] was 5.37% and the inhibition of growth at 10 µM (T47D) was 34.7%. For the same molecule, the inhibition of growth at 10 µM (MDA-MB-468) was 17.2%, the inhibition of growth at 10 µM (CCRF-CEM) was 20.5% and the inhibition of growth at 10 µM (K562) was 26.5%. For the same molecule, the inhibition of growth at 10 µM [8] was 30.7%, the inhibition of growth at 10 µM [9] was 25.2% and the inhibition of growth at 10 µM (SR) was 50.7%. The inhibition of growth at 10 µM (A549) was 29.2%, the “growth inhibition (GI)” value (HOP-62) was “inactive” and the inhibition of growth at 10 µM [10] was 24.7%. For the same molecule, the inhibition of growth at 10 µM (NCI-H226) was 12.3%, the inhibition of growth at 10 µM (NCI-H23) was 5.43% and the “growth inhibition (GI)” value (NCI-H322M) was “inactive”. The inhibition of growth at 10 µM (NCI-H460) was 17.7%, the inhibition of growth at 10 µM (NCI-H522) was 30.1% and the inhibition of growth at 10 µM [11] was 2.32%. The “growth inhibition (GI)” value (HCC 2998) was “inactive”, the inhibition of growth at 10 µM [12] was 26.5% and the inhibition of growth at 10 µM [13] was 16.6%. It also gave an inhibition of growth at 10 µM (HT-29) of 28.9%, an inhibition of growth at 10 µM (KM12) of 8.36% and an inhibition of growth at 10 µM [14] of 5.34%. The inhibition of growth at 10 µM [15] was 4.31%, the inhibition of growth at 10 µM [16] was 9.64% and the inhibition of growth at 10 µM [17] was 2.48%. The inhibition of growth at 10 µM [18] was 17.5%, the inhibition of growth at 10 µM [19] was 4.31% and the inhibition of growth at 10 µM (U-251) was 21.5%. The “growth inhibition (GI)” value (LOX IMVI) was “inactive”, the “growth inhibition (GI)” value (Malme-3M) was “inactive” and the inhibition of growth at 10 µM (M14) was 7.86%. The inhibition of growth at 10 µM (MDA-MB-435) was 3.66%, the inhibition of growth at 10 µM (SK-MEL-28) was 3.66% and the inhibition of growth at 10 µM (SK-MEL-5) was 22.9%. The “growth inhibition (GI)” value (UACC-257) was “inactive”, the inhibition of growth at 10 µM [20] was 9.98% and the inhibition of growth at 10 µM [21] was 0.84%. The “growth inhibition (GI)” value (OVCAR-4) was “inactive”, the “growth inhibition (GI)” value (OVCAR-5) was “inactive” and the inhibition of growth at 10 µM [22] was 6.9%. For the same molecule, the inhibition of growth at 10 µM [23] was 2.27%, the inhibition of growth at 10 µM (786-0) was 11.8% and the inhibition of growth at 10 µM (A498) was 24.9%. For the same molecule, the inhibition of growth at 10 µM (ACHN) was 3.6%.
